The record followed here is ChEMBL document CHEMBL1201862, “PubChem BioAssay data set” (2004).

Data set [1] has as its target T1, Aryl hydrocarbon receptor (Homo sapiens, UniProt P35869).
T1 sequence (P35869 whole entry): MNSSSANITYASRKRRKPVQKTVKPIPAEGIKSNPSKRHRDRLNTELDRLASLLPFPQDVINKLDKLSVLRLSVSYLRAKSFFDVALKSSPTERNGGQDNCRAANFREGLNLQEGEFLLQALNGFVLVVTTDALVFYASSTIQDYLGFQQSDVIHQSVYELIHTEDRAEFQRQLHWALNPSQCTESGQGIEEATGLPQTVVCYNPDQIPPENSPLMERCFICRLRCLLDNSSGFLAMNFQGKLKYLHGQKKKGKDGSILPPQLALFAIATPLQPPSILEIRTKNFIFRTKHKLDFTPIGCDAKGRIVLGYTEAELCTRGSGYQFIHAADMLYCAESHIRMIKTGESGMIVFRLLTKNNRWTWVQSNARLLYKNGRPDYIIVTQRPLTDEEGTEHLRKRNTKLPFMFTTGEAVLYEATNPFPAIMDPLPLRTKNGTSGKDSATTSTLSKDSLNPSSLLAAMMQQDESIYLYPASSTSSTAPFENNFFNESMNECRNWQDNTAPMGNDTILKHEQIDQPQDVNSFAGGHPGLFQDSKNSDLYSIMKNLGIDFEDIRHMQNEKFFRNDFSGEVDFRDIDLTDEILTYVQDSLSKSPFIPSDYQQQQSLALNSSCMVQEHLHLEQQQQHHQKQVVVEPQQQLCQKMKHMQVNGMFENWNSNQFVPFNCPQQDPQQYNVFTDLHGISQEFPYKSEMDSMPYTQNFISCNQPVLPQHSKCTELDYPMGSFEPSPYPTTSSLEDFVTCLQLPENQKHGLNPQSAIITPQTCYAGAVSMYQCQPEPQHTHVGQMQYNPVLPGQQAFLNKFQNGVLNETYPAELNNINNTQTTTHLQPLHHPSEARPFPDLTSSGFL
Put plainly: Luminescence-based cell-based high throughput dose response assay for activators of the Aryl Hydrocarbon Receptor (AHR). [Related pubchem assays: 2796 (Primary screen (AHR activators in singlicate)), 2845 (Confirmation screen (AHR activators in triplicate)), 434939 (Counterscreen (PXR activators in triplicate)), 2804 (Summary (AHR activators))]. The class given is ADME. In general terms: The purpose of a counterscreen is to sort out artefacts and off-target activity.

For data set [2], the target named is Mitogen-activated protein kinase 10 (Homo sapiens, UniProt P53779). Put plainly: Dose response biochemical screening assay for inhibitors of c-Jun N-Terminal Kinase 3 (JNK3). [Related pubchem assays: 746 ].
The target in data set [3] is NAD-dependent protein deacylase sirtuin-5, mitochondrial (Homo sapiens, UniProt Q9NXA8). Briefly: sirtuin-5 deacylation blockers, concentration series – biochemical, fluorescence imaging, cherry-pick, set 5, dose response (AID 720591).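 Note: desuccinylation of succinyl peptide AMC substrate read as fluorescence after trypsin release; potency of inhibitors that lower fluorescence and may act on trypsin instead.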
For data set [4], the target named is Voltage-dependent T-type calcium channel subunit alpha-1H (Homo sapiens, UniProt O95180). Format: functional.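 Note: channel activity triggered by adding a high calcium stimulation buffer.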
Data set [5] in a line: HPDE-C7 pancreatic duct cell viability loss – fluorescence, HTS (AID 430). The class given is functional, cell-based. The note with it: Homo sapiens.
Data set [6] is described as follows: viability loss of HPDE-C7K cells – cell-based, fluorescence, HTS, primary screen (AID 431). The class given is functional. The conditions noted are these: Homo sapiens.
Another data set addresses Estrogen receptor beta (Homo sapiens, UniProt Q92731).
Data set [7] concerns the target Peroxisome proliferator-activated receptor gamma/Nuclear receptor coactivator 1 (Homo sapiens, UniProt P37231). Format: functional.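 Note: agonist potency as compounds enhance coactivator SRC-1 recruitment to PPARgamma.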
Data set [8] has as its target Peroxisome proliferator-activated receptor gamma/Nuclear receptor coactivator 3 (Homo sapiens, UniProt P37231). The class given is functional.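 Note: agonist potency for raising coactivator recruitment to the receptor.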
Data set [9] has as its target Peroxisome proliferator-activated receptor gamma/Nuclear receptor coactivator 2 (Homo sapiens, UniProt P37231). Format: functional.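 Note: agonist potency for raising coactivator recruitment to the receptor.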
Data set [10] is described as follows: A Cell Based Secondary Assay To Explore Cytotoxicity of Compounds that Sensitize Mycobacterium Tuberculosis to Beta-Lactam Antibiotics. Format: functional.
A short description of data set [11]: OVCAR-3 cell viability loss – plate reader, dry powder samples, PAX8 inhibitor project, dose response (AID 743044). Format: functional, cell-based.
The target in another data set is Paired box protein Pax-8 (Homo sapiens, UniProt Q06710). Briefly: PAX8 transcriptional activity inhibition in RMG-I – RMG-I cells, luciferase, cherry-pick, dose response (AID 687027).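 Note: luciferase reporter driven by Pax8 target thyroperoxidase promoter measured by SteadyGlo luminescence.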 Format: functional, cell-based.
Data set [12] is described as follows: OVCAR8 cell viability loss – plate reader, dry powder samples, PAX8 project, dose response (AID 743197). The conditions noted are these: OVCAR-8. Format: functional, cell-based.
Data set [13] is described as follows: A2780 cell killing – plate reader, dry powder samples, cytotoxicity control, dose response (AID 743046). Format: functional, cell-based.
The next data set has as its target T2, Caspase-6 (Homo sapiens, UniProt P55212).
T2 sequence (P55212 whole entry): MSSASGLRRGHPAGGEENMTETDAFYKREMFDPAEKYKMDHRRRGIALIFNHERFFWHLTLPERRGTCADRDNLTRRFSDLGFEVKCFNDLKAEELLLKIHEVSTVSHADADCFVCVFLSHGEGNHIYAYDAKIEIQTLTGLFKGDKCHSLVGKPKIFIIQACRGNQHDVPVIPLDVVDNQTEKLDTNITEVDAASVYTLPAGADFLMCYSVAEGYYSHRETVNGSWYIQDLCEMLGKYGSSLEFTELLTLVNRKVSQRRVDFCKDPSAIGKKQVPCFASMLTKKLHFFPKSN
Briefly: inhibition of CASP6 peptide cleavage – biochemical, VEID-R110 fluorescence, cherry-pick, dose response (AID 720632).

The nature of data set [14]: non-specific 3'UTR reporter inhibition in Clone20-Shn3RL – cell-based, Renilla luciferase, cherry-picked, counter-screen for Shn3 inhibitor project, dose response (AID 624133). Format: functional.
A short description of data set [15]: reduction of Shn3 3'UTR-driven luciferase in osteoblasts – cell-based, Clone20 osteoblasts, firefly luciferase, cherry-picked, dose response (AID 624132).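 Note: firefly luciferase luminescence from reporter carrying the Shn3 3'UTR in osteoblasts.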 The class given is functional.
Data set [16] in a line: loss of viability in HepG2 cells – cell-based, CellTiter-Glo, cherry-picked, cytotoxicity control for Shn3 inhibitor project, dose response (AID 624134). Format: functional. A general note: In ATP-based viability assays light output follows the ATP content of the culture.
Another data set addresses T3, Cytochrome P450 1A2 (Homo sapiens, UniProt P05177).
T3 sequence (P05177 whole entry): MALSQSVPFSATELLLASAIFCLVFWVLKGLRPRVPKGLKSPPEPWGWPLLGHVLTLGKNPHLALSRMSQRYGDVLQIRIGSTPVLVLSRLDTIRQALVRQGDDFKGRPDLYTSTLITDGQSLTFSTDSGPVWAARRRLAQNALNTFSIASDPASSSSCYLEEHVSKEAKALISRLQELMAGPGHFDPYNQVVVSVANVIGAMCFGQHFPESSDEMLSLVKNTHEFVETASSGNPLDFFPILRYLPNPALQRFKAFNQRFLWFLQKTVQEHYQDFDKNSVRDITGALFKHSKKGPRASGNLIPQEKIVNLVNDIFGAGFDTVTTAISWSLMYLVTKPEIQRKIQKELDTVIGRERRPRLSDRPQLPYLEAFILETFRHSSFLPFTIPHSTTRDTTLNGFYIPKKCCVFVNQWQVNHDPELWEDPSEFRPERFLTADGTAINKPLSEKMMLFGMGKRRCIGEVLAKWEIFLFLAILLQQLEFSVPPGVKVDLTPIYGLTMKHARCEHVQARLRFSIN

In a further data set the target is Cytochrome P450 2D6 (Homo sapiens, UniProt P10635).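 Note: CYP2D6 member of a cytochrome P450 panel assay.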
A short description of data set [17]: Luminescence Cell-Based Dose Retest to Confirm Inhibitors of Cancer Stem Cells. [Related pubchem assays (depositor defined):AID2717, AID2721]. The class given is functional. The conditions noted are these: Homo sapiens.
The target of another data set is Cytochrome P450 2C19 (Homo sapiens, UniProt P33261). Briefly: Cytochrome panel assay with activity outcomes. Panel member name: p450-cyp2c19 Compounds with AC50 equal or less than 10 uM are considered active. Format: functional. The conditions noted are these: read-out: AC50.
Data set [18] has as its target T4, Luciferin 4-monooxygenase (Photinus pyralis, UniProt P08659). Briefly: Counter Screen for Luciferase-based Assay Positives. [Related pubchem assays: 620, 618, 411 ].
The nature of data set [19]: Luminescence Cell-Based Dose Confirmation HTS to Identify Inhibitors of Platelet Dense Granule Release. [Related pubchem assays: 1663 (Primary HTS), 1678 (Summary of Project)]. Format: functional.
In data set [20] the target is T4, Luciferin 4-monooxygenase. Briefly: inhibition of purified Photinus pyralis luciferase – biochemical, luminescence, dose response (AID 1891).
The nature of data set [21]: Luminescence Cell-Based Dose Response HTS to Identify Inhibitors of 5'UTR Stem-Loop Driven Prion Protein mRNA Translation in H4 Neuroglioblastoma Cells. [Related pubchem assays: 1827 (Project Summary), 1813 (Primary HTS)]. The class given is functional.
The next data set relates to HT-1080. Put plainly: HT1080 cell viability loss – fluorescence readout (AID 620). Format: functional, cell-based. The note with it: Homo sapiens.
A short description of data set [22]: alpha-synuclein stem-loop luciferase translation blockers – H4 neuroglioma cells, luminescence, confirmation (AID 1988). The class given is functional, cell-based.

Calls of active or inactive are those of the source. Some results are limits rather than exact numbers.

Chain of Peroxisome proliferator-activated receptor gamma/Nuclear receptor coactivator 3 (P37231 whole entry): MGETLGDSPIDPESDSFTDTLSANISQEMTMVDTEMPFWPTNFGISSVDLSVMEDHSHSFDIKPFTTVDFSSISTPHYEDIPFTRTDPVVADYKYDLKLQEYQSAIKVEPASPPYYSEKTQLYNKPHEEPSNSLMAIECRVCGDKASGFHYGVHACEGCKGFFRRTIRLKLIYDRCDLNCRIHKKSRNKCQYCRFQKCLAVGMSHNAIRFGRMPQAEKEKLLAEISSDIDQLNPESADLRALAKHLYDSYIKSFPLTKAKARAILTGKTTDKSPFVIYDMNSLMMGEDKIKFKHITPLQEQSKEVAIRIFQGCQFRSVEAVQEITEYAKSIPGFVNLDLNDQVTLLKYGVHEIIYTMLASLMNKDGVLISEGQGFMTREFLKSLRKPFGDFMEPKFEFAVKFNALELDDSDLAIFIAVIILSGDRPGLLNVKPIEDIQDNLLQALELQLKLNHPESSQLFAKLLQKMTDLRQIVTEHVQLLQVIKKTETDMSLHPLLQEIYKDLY
Chain of Peroxisome proliferator-activated receptor gamma/Nuclear receptor coactivator 3 (Q9Y6Q9 whole entry, further chain): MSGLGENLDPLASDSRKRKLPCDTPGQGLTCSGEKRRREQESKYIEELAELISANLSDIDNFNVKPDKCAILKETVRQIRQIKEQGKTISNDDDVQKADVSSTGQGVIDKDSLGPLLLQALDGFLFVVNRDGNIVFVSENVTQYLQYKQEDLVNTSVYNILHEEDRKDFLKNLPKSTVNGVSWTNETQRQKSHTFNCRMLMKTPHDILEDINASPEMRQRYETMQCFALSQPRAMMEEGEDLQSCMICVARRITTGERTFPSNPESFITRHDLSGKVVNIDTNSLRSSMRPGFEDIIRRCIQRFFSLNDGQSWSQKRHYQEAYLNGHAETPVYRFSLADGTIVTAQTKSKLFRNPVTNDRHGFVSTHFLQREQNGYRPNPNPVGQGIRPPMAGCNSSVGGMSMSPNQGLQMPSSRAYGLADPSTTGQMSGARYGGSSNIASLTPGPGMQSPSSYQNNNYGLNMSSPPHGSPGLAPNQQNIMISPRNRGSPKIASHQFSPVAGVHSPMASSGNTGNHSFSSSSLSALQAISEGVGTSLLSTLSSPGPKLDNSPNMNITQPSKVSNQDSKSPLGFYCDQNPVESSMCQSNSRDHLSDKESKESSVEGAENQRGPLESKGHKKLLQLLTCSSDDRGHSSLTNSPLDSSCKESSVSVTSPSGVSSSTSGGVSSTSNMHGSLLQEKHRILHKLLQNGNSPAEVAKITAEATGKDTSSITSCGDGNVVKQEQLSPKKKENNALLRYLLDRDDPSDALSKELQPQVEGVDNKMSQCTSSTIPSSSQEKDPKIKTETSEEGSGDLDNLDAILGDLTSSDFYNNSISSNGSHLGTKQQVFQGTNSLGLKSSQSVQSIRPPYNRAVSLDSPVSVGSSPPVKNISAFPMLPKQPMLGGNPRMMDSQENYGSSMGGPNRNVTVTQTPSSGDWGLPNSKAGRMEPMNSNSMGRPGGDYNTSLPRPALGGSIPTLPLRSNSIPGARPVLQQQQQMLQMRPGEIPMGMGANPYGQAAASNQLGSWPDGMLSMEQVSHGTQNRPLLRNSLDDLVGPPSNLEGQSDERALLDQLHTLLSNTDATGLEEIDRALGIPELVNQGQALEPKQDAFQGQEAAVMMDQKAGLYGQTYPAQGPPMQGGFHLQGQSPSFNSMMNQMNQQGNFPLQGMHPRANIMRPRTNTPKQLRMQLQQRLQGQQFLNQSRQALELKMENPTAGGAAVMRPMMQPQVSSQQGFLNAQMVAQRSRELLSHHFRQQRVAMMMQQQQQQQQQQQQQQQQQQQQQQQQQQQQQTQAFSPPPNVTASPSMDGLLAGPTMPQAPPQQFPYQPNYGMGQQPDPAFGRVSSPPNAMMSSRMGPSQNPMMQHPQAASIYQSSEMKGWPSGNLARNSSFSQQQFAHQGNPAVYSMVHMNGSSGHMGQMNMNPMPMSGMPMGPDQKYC
Chain of Peroxisome proliferator-activated receptor gamma/Nuclear receptor coactivator 2 (P37231 whole entry): as the sequence (P37231 whole entry) above
Chain of Peroxisome proliferator-activated receptor gamma/Nuclear receptor coactivator 2 (Q15596 whole entry, further chain): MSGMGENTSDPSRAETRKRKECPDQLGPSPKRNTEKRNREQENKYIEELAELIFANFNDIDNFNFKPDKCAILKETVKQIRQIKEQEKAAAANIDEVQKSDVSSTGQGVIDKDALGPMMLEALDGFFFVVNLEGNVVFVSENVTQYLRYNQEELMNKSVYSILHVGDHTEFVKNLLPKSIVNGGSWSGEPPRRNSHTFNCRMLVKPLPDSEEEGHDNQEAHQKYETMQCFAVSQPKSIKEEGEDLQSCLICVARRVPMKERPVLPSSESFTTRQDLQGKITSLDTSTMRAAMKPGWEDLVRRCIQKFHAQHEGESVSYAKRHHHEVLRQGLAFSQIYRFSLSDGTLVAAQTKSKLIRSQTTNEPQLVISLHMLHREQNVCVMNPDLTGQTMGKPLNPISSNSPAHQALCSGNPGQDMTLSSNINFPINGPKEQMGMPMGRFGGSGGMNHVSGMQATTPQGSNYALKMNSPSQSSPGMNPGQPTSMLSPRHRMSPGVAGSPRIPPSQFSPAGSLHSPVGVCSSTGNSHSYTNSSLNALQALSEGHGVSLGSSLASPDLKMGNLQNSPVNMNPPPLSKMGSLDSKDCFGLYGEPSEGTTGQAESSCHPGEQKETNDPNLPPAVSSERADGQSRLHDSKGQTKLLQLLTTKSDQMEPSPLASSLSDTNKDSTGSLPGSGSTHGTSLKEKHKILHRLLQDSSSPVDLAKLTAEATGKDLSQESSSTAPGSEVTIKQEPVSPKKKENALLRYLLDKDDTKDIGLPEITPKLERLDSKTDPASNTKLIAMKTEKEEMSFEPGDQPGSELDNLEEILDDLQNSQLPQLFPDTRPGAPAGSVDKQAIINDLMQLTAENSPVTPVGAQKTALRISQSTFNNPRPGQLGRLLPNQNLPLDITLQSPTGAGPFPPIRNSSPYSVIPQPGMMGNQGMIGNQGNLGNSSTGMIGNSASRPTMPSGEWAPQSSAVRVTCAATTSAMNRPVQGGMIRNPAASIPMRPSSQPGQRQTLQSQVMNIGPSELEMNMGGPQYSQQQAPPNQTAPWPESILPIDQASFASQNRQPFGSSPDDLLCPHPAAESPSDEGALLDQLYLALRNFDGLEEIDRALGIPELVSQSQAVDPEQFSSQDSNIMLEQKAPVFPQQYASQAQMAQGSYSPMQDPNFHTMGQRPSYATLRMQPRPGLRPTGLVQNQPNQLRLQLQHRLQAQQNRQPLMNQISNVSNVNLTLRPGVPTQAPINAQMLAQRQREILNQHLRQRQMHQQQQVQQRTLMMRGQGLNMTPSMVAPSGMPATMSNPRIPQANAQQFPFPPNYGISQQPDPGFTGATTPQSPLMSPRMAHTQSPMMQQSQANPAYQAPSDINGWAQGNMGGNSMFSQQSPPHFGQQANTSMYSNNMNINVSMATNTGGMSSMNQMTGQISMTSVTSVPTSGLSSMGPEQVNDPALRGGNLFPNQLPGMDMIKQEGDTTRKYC
T4 sequence (P08659 whole entry): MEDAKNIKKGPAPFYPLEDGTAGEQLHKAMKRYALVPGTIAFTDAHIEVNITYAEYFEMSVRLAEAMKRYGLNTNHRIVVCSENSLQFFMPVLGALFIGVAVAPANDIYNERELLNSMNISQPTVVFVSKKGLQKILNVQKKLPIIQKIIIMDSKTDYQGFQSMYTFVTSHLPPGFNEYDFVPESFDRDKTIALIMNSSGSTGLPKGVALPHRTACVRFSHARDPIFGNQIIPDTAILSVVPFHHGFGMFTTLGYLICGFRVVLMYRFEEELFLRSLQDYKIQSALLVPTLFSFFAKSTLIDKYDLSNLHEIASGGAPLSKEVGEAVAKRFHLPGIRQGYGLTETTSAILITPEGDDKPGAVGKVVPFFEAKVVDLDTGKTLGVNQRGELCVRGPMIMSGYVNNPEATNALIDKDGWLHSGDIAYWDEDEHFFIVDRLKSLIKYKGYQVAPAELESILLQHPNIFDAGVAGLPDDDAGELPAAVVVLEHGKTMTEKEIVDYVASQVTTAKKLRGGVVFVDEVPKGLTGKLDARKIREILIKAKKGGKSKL
Chain of Mitogen-activated protein kinase 10 (P53779 whole entry): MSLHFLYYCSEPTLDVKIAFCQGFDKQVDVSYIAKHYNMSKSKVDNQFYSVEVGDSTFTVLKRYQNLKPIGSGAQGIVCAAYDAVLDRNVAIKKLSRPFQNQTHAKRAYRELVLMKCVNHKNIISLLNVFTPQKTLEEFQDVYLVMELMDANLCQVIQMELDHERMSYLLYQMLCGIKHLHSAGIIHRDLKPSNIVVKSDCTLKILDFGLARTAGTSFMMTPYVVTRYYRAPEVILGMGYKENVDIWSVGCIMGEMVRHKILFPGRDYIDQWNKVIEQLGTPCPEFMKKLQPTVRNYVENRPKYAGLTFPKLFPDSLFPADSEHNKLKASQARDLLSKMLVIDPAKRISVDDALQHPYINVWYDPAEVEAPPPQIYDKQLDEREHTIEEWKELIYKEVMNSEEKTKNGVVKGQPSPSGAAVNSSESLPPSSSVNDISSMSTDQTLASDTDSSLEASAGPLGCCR

As a reminder, the EC50 is the concentration needed to bring the measured effect to its halfway point. For the molecule `Cc1csc(SCC(=O)Nc2ccc(Cl)cn2)n1`, the EC50 in [1] is 1.54 µM (active).
The term IC50 denotes the concentration that inhibits the measured activity by half. Turning to `CC(=O)Nc1ccc(S(=O)(=O)N2CCC(n3cnc4cc(F)ccc43)CC2)cc1`, in data set [2], the 50% inhibitory concentration (IC50) is 32.2 µM (not active).
By AC50 is commonly meant the concentration giving half of the maximal activity seen. As to `COc1ccc(CC(=O)NC(C)c2nnc(SCCOc3ccc(OC)cc3)n2C)cc1` (stereo unspecified), the concentration at half-maximal activity (AC50) in data set [3] is 24.2 µM (active).
As for `O=C(Nc1ncc(Br)s1)C(Cc1ccccc1)n1cccc1` (stereo unspecified), the half-maximal effective concentration (EC50) in data set [4] was 1.33 µM (active); in data set [5] it was 11.9 µM (active); in [6], 13.2 µM (active).
Turning to `COc1ccc(Cn2c(C)c(C)c(C#N)c2NC(=O)Nc2cccc(C)c2)cc1`, the concentration for half-maximal inhibition (IC50) on Estrogen receptor beta is reported as > 50 µM (not active).
Turning to `C=CCn1c(=O)c2ccccc2n2c(SCC(=O)c3ccccc3)nnc12`, the EC50 in data set [7], in data set [8] and in data set [9] was > 79.4 µM (not active) throughout.
Broadly, the CC50 is the concentration giving 50% cytotoxicity. Consider `O=C(/C=C/c1ccccc1[N+](=O)[O-])c1ccc(F)cc1`, for which the 50% cytotoxic concentration (CC50) in data set [10] is > 40 µM (active).
On to `C[C@H](CO)N1C[C@H](C)[C@@H](CN(C)Cc2ccc(C(F)(F)F)cc2)OCCCC[C@H](C)Oc2ccc(NC(=O)Nc3ccc(F)cc3)cc2C1=O`, for which the half-maximal activity concentration (AC50) in data set [11] was 45.4 µM (active); on Paired box protein Pax-8 it was 9.37 µM (active); in [12], 39.2 µM (active); in [13] it was 46.6 µM (active).
Regarding `Cc1cc(C(=O)NNS(=O)(=O)c2cc(C(=O)O)ccc2Cl)c(C)n1-c1ccccc1`, the concentration at half-maximal activity (AC50) at Caspase-6 was 23.2 µM (active); in [14] it was 16.9 µM (active); in data set [15], 25.7 µM (active); in data set [16], > 70 µM (inactive).
On to `O=C(Nc1cnc2ccccn2c1=O)c1ccc(F)cc1`, for which the half-inhibitory concentration (IC50) against Estrogen receptor beta is recorded as > 50 µM (not active).
In the case of `COc1cc(C(=O)NCc2cn3ccccc3n2)cc(OC)c1OC`, in data set [2], the IC50 is 7.87 µM (active).
For `CC(C)(Sc1ccc(CCN(CCCCC2CCCCC2)C(=O)NC2CCCCC2)cc1)C(=O)O` [GW7647], the half-maximal activity concentration (AC50) at Cytochrome P450 1A2 is 39.8 µM (inconclusive); at Cytochrome P450 2D6, “inconclusive”; in data set [3], 7.9 µM (active); in data set [17], 4.46 µM (active); at Cytochrome P450 2C19, 25.1 µM (inconclusive).
For the molecule `O=C(Nc1cccc(O)c1)c1noc2c1CCCCC2`, the concentration giving a half-maximal response (EC50) in data set [18] is > 100 µM (not active); in data set [19], 3.4 µM (active); in [20] it was 2.87 µM (active); in [21], > 30 µM (not active); in the data set with HT-1080, > 50 µM (not active); in data set [22], 8.89 µM (active).
Take `COC(=O)c1ccc(S(=O)(=O)c2ccc(C(=O)OC)s2)s1`: the EC50 in [7] is 24.6 µM (not active); in [8] it was 36.7 µM (not active); in data set [9], 27.1 µM (not active).
Consider `COc1ccc(CC(=O)Nc2nc3ccccc3s2)cc1S(=O)(=O)N1CCOCC1`, for which, in data set [2], the concentration for half-maximal inhibition (IC50) is recorded as 24.7 µM (not active).
With `CC(/C=C/c1cccc([N+](=O)[O-])c1)=N/NC(=O)c1cccnc1`, the EC50 in data set [1] was > 91.6 µM (not active).
`Cc1ccc(-c2nc3cc(N)ccc3o2)c(C)c1`: the results for the EC50 (in data set [18]; in the data set with HT-1080) were 1.95 µM (active) and > 50 µM (not active), respectively.
On to `O=C(c1ccncc1)N1CCCCN2[C@H](C1)[C@H](c1ccc(C#Cc3ccccn3)cc1)[C@@H]2CO`, for which the half-maximal activity concentration (AC50) on Caspase-6 was 50.4 µM (active).
`COc1cccc(-c2nn(C)c3sc(C(=O)N4CCN(c5ccccn5)CC4)cc23)c1`: the EC50 in data set [5] is 15.2 µM (active); in data set [6] it was 14 µM (active).
Regarding `Oc1oc(-c2ccccc2)nc1/C=N/c1nccs1`, the half-maximal effective concentration (EC50) in data set [1] is 12.3 µM (not active).
In the case of `O=C(O)CCCC(=O)Nc1cc([N+](=O)[O-])ccc1O`, the EC50 in data set [7], in [8] and in data set [9] was > 79.4 µM (not active) throughout.
